Experiments:
[1] = molecular target: Serine/threonine-protein kinase NIM1 (Homo sapiens, UniProt Q8IY84); assay: Selectivity interaction (KinomeScan (DiscoverX)) EUB0000607a NIM1K; details: at 10 µM
[2] = molecular target: T1, Dual specificity mitogen-activated protein kinase kinase 6 (Homo sapiens) (UniProt P52564); assay: Selectivity interaction (Upstate Kinase Profiler service (Millipore)) EUB0000056c MAP2K6; details: at 1 µM
T1 sequence (whole entry): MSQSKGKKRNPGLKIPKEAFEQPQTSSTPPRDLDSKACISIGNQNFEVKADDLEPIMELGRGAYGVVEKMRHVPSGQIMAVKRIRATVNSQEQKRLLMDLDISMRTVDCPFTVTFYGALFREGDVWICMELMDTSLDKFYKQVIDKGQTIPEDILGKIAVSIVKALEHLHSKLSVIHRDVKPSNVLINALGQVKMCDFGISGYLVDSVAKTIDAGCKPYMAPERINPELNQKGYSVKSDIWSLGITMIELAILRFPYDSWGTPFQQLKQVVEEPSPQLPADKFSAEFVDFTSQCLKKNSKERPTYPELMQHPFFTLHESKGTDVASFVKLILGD

[3] = molecular target: T2, Serine/threonine-protein kinase Nek5 (Homo sapiens) (UniProt Q6P3R8); assay: Selectivity interaction (KinomeScan (DiscoverX)) EUB0000595a NEK5; details: at 10 µM
T2 sequence (whole entry): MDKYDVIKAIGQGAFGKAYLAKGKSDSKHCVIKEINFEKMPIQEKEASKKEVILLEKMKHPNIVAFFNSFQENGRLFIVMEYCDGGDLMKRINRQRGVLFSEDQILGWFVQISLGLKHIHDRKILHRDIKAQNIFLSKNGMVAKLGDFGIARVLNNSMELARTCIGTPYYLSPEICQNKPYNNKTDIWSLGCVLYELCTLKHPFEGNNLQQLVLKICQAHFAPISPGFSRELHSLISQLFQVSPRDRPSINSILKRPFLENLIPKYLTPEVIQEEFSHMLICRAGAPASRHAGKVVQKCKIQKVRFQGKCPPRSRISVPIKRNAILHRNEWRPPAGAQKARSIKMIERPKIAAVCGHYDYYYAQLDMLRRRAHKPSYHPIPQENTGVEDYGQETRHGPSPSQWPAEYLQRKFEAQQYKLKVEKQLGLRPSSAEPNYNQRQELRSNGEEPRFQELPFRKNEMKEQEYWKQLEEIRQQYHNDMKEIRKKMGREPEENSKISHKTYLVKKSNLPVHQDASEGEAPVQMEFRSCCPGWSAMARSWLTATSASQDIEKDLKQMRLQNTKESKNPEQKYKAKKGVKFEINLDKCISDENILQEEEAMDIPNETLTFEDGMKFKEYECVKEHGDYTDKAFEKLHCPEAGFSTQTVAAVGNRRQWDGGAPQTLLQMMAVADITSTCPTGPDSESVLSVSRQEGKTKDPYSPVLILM

[4] = molecular target: T3, MAP kinase-activated protein kinase 5 (Homo sapiens) (UniProt Q8IW41); assay: Selectivity interaction (Ambit KINOMEscan and KiNATiv profiling in Jurkat cells) EUB0000090b MAPKAPK5; format: cell-based; details: at 1 µM
T3 sequence (whole entry): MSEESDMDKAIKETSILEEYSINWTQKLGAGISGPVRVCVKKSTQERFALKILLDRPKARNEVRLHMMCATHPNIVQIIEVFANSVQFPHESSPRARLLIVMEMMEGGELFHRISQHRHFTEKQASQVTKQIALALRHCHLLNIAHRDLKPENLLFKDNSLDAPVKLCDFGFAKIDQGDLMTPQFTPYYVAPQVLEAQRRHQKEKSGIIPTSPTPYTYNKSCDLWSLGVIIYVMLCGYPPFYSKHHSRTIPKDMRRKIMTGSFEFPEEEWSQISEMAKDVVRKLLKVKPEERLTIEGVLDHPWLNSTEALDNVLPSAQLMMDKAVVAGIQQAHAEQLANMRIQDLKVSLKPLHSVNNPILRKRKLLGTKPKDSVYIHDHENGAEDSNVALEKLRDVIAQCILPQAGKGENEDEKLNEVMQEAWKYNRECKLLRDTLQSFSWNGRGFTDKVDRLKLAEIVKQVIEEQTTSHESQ

[5] = molecular target: Cyclin-dependent kinase 7 (Homo sapiens, UniProt P50613); assay: Selectivity interaction (KinomeScan (DiscoverX)) EUB0000045b CDK7
Chain of Cyclin-dependent kinase 7 (P50613 whole entry): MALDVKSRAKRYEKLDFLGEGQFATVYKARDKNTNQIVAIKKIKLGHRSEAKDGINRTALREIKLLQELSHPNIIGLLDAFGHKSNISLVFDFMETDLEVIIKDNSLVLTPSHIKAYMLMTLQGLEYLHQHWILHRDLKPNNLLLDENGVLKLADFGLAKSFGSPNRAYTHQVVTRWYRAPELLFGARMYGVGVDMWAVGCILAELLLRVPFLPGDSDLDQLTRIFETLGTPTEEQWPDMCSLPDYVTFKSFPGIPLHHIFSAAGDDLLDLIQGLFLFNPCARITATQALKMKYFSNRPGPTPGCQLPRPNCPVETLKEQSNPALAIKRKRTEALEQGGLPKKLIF

[6] = molecular target: Activin receptor type-1-like (Homo sapiens) (UniProt P37023); assay: Selectivity interaction (KinomeScan (DiscoverX)) EUB0000618a ACVRL1; details: at 10 µM
Chain of Activin receptor type-1-like (Homo sapiens) (P37023 whole entry, canonical isoform): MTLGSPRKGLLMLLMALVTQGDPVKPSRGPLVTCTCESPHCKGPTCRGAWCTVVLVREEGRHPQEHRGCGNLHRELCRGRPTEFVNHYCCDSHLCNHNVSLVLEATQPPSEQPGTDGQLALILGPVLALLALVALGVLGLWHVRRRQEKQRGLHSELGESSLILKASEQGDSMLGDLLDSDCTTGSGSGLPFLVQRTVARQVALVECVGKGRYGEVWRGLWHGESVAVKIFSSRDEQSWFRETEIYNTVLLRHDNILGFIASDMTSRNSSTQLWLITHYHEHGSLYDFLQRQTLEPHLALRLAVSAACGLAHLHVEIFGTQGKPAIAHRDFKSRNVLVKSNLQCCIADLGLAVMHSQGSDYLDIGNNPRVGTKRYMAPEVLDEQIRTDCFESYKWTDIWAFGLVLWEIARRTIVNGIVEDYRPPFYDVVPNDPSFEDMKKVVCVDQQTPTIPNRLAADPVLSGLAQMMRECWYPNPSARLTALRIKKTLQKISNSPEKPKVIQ

[7] = molecular target: Casein kinase I isoform epsilon (Homo sapiens, UniProt P49674); assay: Selectivity interaction (KinomeScan (DiscoverX)) EUB0000618a CSNK1E; details: at 10 µM
Chain of Casein kinase I isoform epsilon (P49674 whole entry, looked up, canonical isoform): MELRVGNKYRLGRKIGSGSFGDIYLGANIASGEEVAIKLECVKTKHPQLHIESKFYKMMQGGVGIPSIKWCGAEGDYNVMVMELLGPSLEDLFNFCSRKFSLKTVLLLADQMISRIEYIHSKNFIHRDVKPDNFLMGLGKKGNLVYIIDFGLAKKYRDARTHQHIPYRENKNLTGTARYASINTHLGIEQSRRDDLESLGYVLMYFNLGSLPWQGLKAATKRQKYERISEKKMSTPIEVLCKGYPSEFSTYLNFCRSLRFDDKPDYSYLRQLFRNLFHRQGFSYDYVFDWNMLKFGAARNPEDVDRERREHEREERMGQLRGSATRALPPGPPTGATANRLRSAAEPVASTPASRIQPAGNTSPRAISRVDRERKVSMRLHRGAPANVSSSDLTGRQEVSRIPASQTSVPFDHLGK

[8] = molecular target: T4, Serine/threonine-protein kinase Nek9 (Homo sapiens) (UniProt Q8TD19); assay: Selectivity interaction (ActivX KiNativ screen (ex vivo kinase selectivity in human PBMCs)) EUB0001619a NEK9; format: cell-based; details: PBMC, at 1 µM
T4 sequence (whole entry): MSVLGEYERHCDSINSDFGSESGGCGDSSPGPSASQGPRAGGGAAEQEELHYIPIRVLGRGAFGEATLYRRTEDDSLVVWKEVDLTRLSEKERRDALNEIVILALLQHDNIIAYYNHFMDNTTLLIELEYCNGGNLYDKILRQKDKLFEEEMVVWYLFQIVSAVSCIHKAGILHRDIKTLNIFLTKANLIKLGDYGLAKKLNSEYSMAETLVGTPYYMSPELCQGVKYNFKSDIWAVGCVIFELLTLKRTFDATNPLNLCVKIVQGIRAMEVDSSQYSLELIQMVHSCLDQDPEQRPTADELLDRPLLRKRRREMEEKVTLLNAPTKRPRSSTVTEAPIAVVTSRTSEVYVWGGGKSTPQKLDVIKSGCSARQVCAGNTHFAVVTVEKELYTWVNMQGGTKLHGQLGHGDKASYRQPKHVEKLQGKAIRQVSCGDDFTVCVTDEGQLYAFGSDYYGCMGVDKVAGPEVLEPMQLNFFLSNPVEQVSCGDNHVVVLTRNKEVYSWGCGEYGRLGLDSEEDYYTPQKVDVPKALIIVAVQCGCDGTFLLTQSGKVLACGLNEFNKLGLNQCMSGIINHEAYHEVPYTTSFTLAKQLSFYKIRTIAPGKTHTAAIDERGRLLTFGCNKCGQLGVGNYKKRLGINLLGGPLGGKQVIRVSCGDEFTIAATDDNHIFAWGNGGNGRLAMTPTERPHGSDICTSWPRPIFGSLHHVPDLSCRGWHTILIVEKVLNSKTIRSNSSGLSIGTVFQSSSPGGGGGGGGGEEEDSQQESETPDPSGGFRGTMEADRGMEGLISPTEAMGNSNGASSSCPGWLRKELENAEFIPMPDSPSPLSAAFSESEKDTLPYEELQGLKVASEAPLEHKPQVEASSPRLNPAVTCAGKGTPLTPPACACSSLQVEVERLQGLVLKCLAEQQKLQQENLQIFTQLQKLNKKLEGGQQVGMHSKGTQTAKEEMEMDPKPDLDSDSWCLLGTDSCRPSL

Chain of Serine/threonine-protein kinase NIM1 (Q8IY84 whole entry): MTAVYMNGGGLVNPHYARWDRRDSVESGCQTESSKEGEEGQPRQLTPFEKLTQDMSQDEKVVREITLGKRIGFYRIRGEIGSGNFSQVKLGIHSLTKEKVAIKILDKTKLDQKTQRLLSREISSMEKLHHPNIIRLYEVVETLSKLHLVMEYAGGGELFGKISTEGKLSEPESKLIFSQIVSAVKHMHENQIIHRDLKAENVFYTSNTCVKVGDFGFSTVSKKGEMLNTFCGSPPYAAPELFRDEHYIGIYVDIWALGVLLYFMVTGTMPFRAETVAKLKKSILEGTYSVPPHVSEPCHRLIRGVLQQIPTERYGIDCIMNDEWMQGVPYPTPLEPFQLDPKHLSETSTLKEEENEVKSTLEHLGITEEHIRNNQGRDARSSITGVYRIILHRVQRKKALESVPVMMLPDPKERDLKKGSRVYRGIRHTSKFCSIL

Q: `CNC(=O)Nc1ccc(-c2nc(N3CC4CCC(C3)O4)c3cnn(C4CCC5(CC4)OCCO5)c3n2)cc1` was tested. Which % of control [1] did it give?
A: 100%

Q: `Cc1ccc(-c2ccc3c(ccc4sc5c(c43)NC[C@@H](C)NC5=O)n2)cn1` was tested. Which % of inhibition [2] did it give?
A: 2%

Q: `COCC(=O)NC/C=C/c1ccc2ncnc(Nc3ccc(Oc4ccc(C)nc4)c(C)c3)c2c1` [CP-724714] was tested. Which % of control [3] did it give?
A: 100%

Q: `CN(C)C/C=C/C(=O)Nc1ccc(C(=O)N2CCCC(Nc3ncc(Cl)c(-c4c[nH]c5ccccc45)n3)C2)cc1` (centres undefined) was tested. Which % of control [4] did it give?
A: 99%

Q: Which % of control ([5]; at 1 µM) does the source give for `C=CC(=O)Nc1cc(-n2c(=O)ccc3cnc4ccc(-c5ccc(NS(C)(=O)=O)cc5)cc4c32)ccc1C` here?
A: 79%

Q: What about the % of control ([5]; at 10 µM) of the same compound?
A: 26%

Q: Which results are given for `O[C@H]1CC[C@H](Nc2ncc3nc(Nc4c(F)cc(F)cc4F)n([C@H]4CCOC4)c3n2)CC1`?
A: % of control [6]: 72%; % of control [7]: 11%

Q: `N#Cc1cccc(-c2c[nH]c3ncnc(N4CCOCC4)c23)c1` was tested. Which % of inhibition [8] did it give?
A: -16%
